Experimental data: patent publication US9764031B2 (priority 2010, dated 2017)

Test system: IL-12
Design: species or system mice
Settings: mouse, in vivo

CCOCc1nc2c(N)nc3ccccc3c2n1CC(C)(C)O [R848, Resiquimod]
peak level of systemic IL-12, free agonist higher than NC-coupled agonist: 30 fold
